Several values for one entry are separate records, joined by “and”; a condition that tells them apart may be missing. Equal values may be shown once. Results filed as inconclusive are left out.
Test system: CD8F1 mice, subcutaneous mammary adenocarcinoma, T/C%
Assay: NCI In Vivo Anticancer Drug Screen. Data for tumor model Mammary Adenocarcinoma CD8F1 (subcutaneous) in CD8F1
Details: higher = larger tumour
Method in brief: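 Mice carrying transplanted tumors received test compound, and survival or tumor size was recorded. Each value is the treated-group measurement divided by the corresponding measurement in vehicle-dosed controls.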

[1] = endpoint: median tumor weight (est.), dose: 12.5 mg/kg/injection, schedule: Q07DX005 (ip), vehicle: saline with Tween-80
[2] = endpoint: median tumor weight (est.), dose: 25.0 mg/kg/injection, schedule: Q07DX005 (ip), vehicle: saline with Tween-80
[3] = endpoint: median tumor weight (est.), dose: 100.0 mg/kg/injection, schedule: Q07DX005 (ip), vehicle: saline with Tween-80
[4] = endpoint: median tumor weight (est.), dose: 200.0 mg/kg/injection, schedule: Q07DX005 (ip), vehicle: saline with Tween-80
[5] = endpoint: median tumor weight (est.), dose: 50.0 mg/kg/injection, schedule: Q07DX005 (ip), vehicle: saline with Tween-80
[6] = endpoint: median tumor weight change, dose: 250.0 mg/kg/injection, schedule: Q01DX001 (ip), vehicle: saline

Compound: BrC1CC(Br)c2c1c1c(c3c2C(Br)CC3Br)C(Br)CC1Br (stereo not drawn)
- T/C [1]: 87 % of control
- T/C [2]: 210 % of control and 98 % of control
- T/C [3]: 86 % of control
- T/C [4]: 71 % of control and 75 % of control
- T/C (endpoint: median tumor weight (est.), dose: 400.0 mg/kg/injection, schedule: Q07DX005 (ip), vehicle: saline with Tween-80): 40 % of control
- T/C (endpoint: median tumor weight change, dose: 250.0 mg/kg/injection, schedule: Q01DX001 (ip), vehicle: saline with Tween-80): 85 % of control
- T/C (endpoint: median tumor weight change, dose: 500.0 mg/kg/injection, schedule: Q01DX001 (ip), vehicle: saline with Tween-80): 88 % of control
- T/C (endpoint: median tumor weight change, dose: 1000.0 mg/kg/injection, schedule: Q01DX001 (ip), vehicle: saline with Tween-80): 59 % of control
- T/C (endpoint: median tumor weight change, dose: 2000.0 mg/kg/injection, schedule: Q01DX001 (ip), vehicle: saline with Tween-80): 51 % of control

Compound: CCCCCn1c(C)cc(/C=C\c2ccc3cc(C)ccc3[n+]2C)c1C
- T/C (endpoint: median tumor weight (est.), dose: 39.0 micrograms/kg/injection, schedule: Q07DX005 (ip), vehicle: Klucel (hydroxypropylcellulose) (HPC)): 87 % of control
- T/C (endpoint: median tumor weight (est.), dose: 78.0 micrograms/kg/injection, schedule: Q07DX005 (ip), vehicle: Klucel (hydroxypropylcellulose) (HPC)): 72 % of control
- T/C (endpoint: median tumor weight (est.), dose: 156.0 micrograms/kg/injection, schedule: Q07DX005 (ip), vehicle: Klucel (hydroxypropylcellulose) (HPC)): 76 % of control
- T/C (endpoint: median tumor weight (est.), dose: 312.0 micrograms/kg/injection, schedule: Q07DX005 (ip), vehicle: Klucel (hydroxypropylcellulose) (HPC)): 111 % of control
- T/C (endpoint: median tumor weight (est.), dose: 625.0 micrograms/kg/injection, schedule: Q07DX005 (ip), vehicle: Klucel (hydroxypropylcellulose) (HPC)): 107 % of control

Compound: CC(=O)OCC(=O)[C@@]12OC(C)(C)O[C@@H]1C[C@H]1[C@@H]3CC(C=O)=C4C=C(OCCCl)CC[C@]4(C)[C@@]3(F)[C@@H](O)C[C@@]12C
- T/C (endpoint: median tumor weight (est.), dose: 25.0 mg/kg/injection, schedule: Q07DX005 (ip), vehicle: Klucel (hydroxypropylcellulose) (HPC)): 41 % of control and 62 % of control
- T/C (endpoint: median tumor weight (est.), dose: 100.0 mg/kg/injection, schedule: Q07DX005 (ip), vehicle: Klucel (hydroxypropylcellulose) (HPC)): 1 % of control and 16 % of control
- T/C (endpoint: median tumor weight (est.), dose: 200.0 mg/kg/injection, schedule: Q07DX005 (ip), vehicle: Klucel (hydroxypropylcellulose) (HPC)): 1 % of control and 7 % of control
- T/C (endpoint: median tumor weight change, dose: 62.0 mg/kg/injection, schedule: Q01DX001 (ip), vehicle: Klucel (hydroxypropylcellulose) (HPC)): 32 % of control
- T/C (endpoint: median tumor weight change, dose: 62.5 mg/kg/injection, schedule: Q01DX001 (ip), vehicle: Klucel (hydroxypropylcellulose) (HPC)): 66 % of control

Compound: CC1(C)OC2C(COC(=O)c3ccc([N+](=O)[O-])cc3)OC(NC(=O)N(CCCl)N=O)C2O1 (stereo not drawn)
- T/C (endpoint: median tumor weight (est.), dose: 1.25 mg/kg/injection, schedule: Q07DX005 (ip), vehicle: saline with Tween-80): 46 % of control
- T/C [2]: 51 % of control
- T/C [5]: 16 % of control
- T/C [3]: 36 % of control

Compound: COc1cc2cc(c1Cl)N1CC(O)C(C)(O)C(=O)NC(C)C(=O)OC(CC1=O)C1(C)OC1C(C)C1CC(O)(NC(=O)O1)C(OC)/C=C\C=C(\C)C2OC (stereo not drawn)
- T/C (endpoint: median tumor weight change, dose: 8.0 micrograms/kg/injection, schedule: Q01DX001 (ip), vehicle: distilled water + alcohol): 101 % of control
- T/C (endpoint: median tumor weight change, dose: 16.0 micrograms/kg/injection, schedule: Q01DX001 (ip), vehicle: distilled water + alcohol): 111 % of control
- T/C (endpoint: median tumor weight change, dose: 64.0 micrograms/kg/injection, schedule: Q01DX001 (ip), vehicle: distilled water + alcohol): 121 % of control

Compound: COc1cc(C(=O)c2cocc2C(=O)c2ccc3c(c2)OCO3)cc(OC)c1OC
- T/C (endpoint: median tumor weight change, dose: 125.0 mg/kg/injection, schedule: Q01DX001 (ip), vehicle: Klucel (hydroxypropylcellulose) (HPC)): 92 % of control
- T/C (endpoint: median tumor weight change, dose: 250.0 mg/kg/injection, schedule: Q01DX001 (ip), vehicle: Klucel (hydroxypropylcellulose) (HPC)): 73 % of control
- T/C (endpoint: median tumor weight change, dose: 500.0 mg/kg/injection, schedule: Q01DX001 (ip), vehicle: Klucel (hydroxypropylcellulose) (HPC)): 62 % of control
- T/C (endpoint: median tumor weight change, dose: 1000.0 mg/kg/injection, schedule: Q01DX001 (ip), vehicle: Klucel (hydroxypropylcellulose) (HPC)): 40 % of control

Compound: CC(=O)CC(=O)CCC(=O)O
- T/C (endpoint: median tumor weight change, dose: 125.0 mg/kg/injection, schedule: Q01DX001 (ip), vehicle: saline): 62 % of control
- T/C [6]: 65 % of control

Compound: O=CC(NC(=O)N(CCCl)N=O)C(O)C(O)C(O)CO (stereo not drawn)
- T/C (endpoint: mean tumor weight, dose: 1.5 mg/kg/injection, schedule: Q02DX008 (ip), vehicle: saline): 58 % of control
- T/C (endpoint: mean tumor weight, dose: 3.0 mg/kg/injection, schedule: Q02DX008 (ip), vehicle: saline): 24 % of control
- T/C (endpoint: mean tumor weight, dose: 6.0 mg/kg/injection, schedule: Q02DX008 (ip), vehicle: saline): 31 % of control
- T/C (endpoint: median tumor weight (est.), dose: 1.5 mg/kg/injection, schedule: Q07DX005 (ip), vehicle: saline): 175 % of control
- T/C (endpoint: median tumor weight (est.), dose: 3.0 mg/kg/injection, schedule: Q07DX005 (ip), vehicle: saline): 107 % of control
- T/C (endpoint: median tumor weight (est.), dose: 6.0 mg/kg/injection, schedule: Q07DX005 (ip), vehicle: saline): 53 % of control
- T/C (endpoint: median tumor weight (est.), dose: 12.0 mg/kg/injection, schedule: Q07DX005 (ip), vehicle: saline): 14 % of control
- T/C (endpoint: median tumor weight (est.), dose: 24.0 mg/kg/injection, schedule: Q07DX005 (ip), vehicle: saline): 13 % of control

Compound: CC1(C)OCC(CO)(Nc2nc(N3CC3)nc(N3CC3)n2)CO1
- T/C (endpoint: median tumor weight (est.), dose: 1.25 mg/kg/injection, schedule: Q07DX005 (ip), vehicle: saline): 41 % of control
- T/C (endpoint: median tumor weight (est.), dose: 2.5 mg/kg/injection, schedule: Q07DX005 (ip), vehicle: saline): 36 % of control
- T/C (endpoint: median tumor weight (est.), dose: 5.0 mg/kg/injection, schedule: Q07DX005 (ip), vehicle: saline): 18 % of control
- T/C (endpoint: median tumor weight (est.), dose: 10.0 mg/kg/injection, schedule: Q07DX005 (ip), vehicle: saline): 6 % of control

Compound: CCC1CN2C(=N1)c1ccccc1-c1cc(Cl)ccc12 (stereo not drawn)
- T/C (endpoint: median tumor weight (est.), dose: 3.12 mg/kg/injection, schedule: Q07DX005 (ip), vehicle: saline): 82 % of control
- T/C (endpoint: median tumor weight (est.), dose: 3.12 mg/kg/injection, schedule: Q07DX005 (ip), vehicle: suspension in saline): 111 % of control
- T/C (endpoint: median tumor weight (est.), dose: 6.25 mg/kg/injection, schedule: Q07DX005 (ip), vehicle: saline): 42 % of control
- T/C (endpoint: median tumor weight (est.), dose: 12.5 mg/kg/injection, schedule: Q07DX005 (ip), vehicle: saline): 43 % of control
- T/C (endpoint: median tumor weight (est.), dose: 12.5 mg/kg/injection, schedule: Q07DX005 (ip), vehicle: suspension in saline): 98 % of control
- T/C (endpoint: median tumor weight (est.), dose: 25.0 mg/kg/injection, schedule: Q07DX005 (ip), vehicle: saline): 30 % of control
- T/C (endpoint: median tumor weight (est.), dose: 25.0 mg/kg/injection, schedule: Q07DX005 (ip), vehicle: suspension in saline): 64 % of control
- T/C (endpoint: median tumor weight (est.), dose: 50.0 mg/kg/injection, schedule: Q07DX005 (ip), vehicle: suspension in saline): 97 % of control

Compound: CCOC(=O)C(N)CSC(=O)NC (stereo not drawn)
- T/C (endpoint: median tumor weight change, dose: 100.0 mg/kg/injection, schedule: Q01DX001 (ip), vehicle: saline): 115 % of control
- T/C (endpoint: median tumor weight change, dose: 200.0 mg/kg/injection, schedule: Q01DX001 (ip), vehicle: saline): 81 % of control
- T/C [6]: 91 % of control and 111 % of control
- T/C (endpoint: median tumor weight change, dose: 400.0 mg/kg/injection, schedule: Q01DX001 (ip), vehicle: saline): 86 % of control
- T/C (endpoint: median tumor weight change, dose: 500.0 mg/kg/injection, schedule: Q01DX001 (ip), vehicle: saline): 53 % of control and 74 % of control
- T/C (endpoint: median tumor weight change, dose: 800.0 mg/kg/injection, schedule: Q01DX001 (ip), vehicle: saline): 96 % of control

Compound: COC1=C(OC)C(=O)C(Sc2ccc3ccccc3c2)=CC1=O
- T/C [1]: 115 % of control
- T/C [2]: 84 % of control
- T/C [5]: 122 % of control
- T/C [4]: 92 % of control

Compound: O=C(NP(=O)(N1CC1)N1CC1)c1cc(I)ccc1I
- T/C (endpoint: median tumor weight (est.), dose: 16.0 mg/kg/injection, schedule: Q07DX005 (ip), vehicle: saline with Tween-80): 68 % of control
- T/C (endpoint: median tumor weight (est.), dose: 32.0 mg/kg/injection, schedule: Q07DX005 (ip), vehicle: saline with Tween-80): 77 % of control
- T/C (endpoint: median tumor weight (est.), dose: 64.0 mg/kg/injection, schedule: Q07DX005 (ip), vehicle: saline with Tween-80): 49 % of control
- T/C (endpoint: median tumor weight (est.), dose: 128.0 mg/kg/injection, schedule: Q07DX005 (ip), vehicle: saline with Tween-80): 6 % of control

Compound: Cc1ccc2nc(-c3ccc4nc(-c5ccc(N=Nc6ccc(-c7nc8ccc(-c9nc%10ccc(C)c(S(=O)(=O)O)c%10s9)cc8s7)cc6)cc5)sc4c3)sc2c1S(=O)(=O)O
- T/C (endpoint: median tumor weight change, dose: 125.0 mg/kg/injection, schedule: Q01DX001 (ip), vehicle: suspension in saline): 94 % of control
- T/C (endpoint: median tumor weight change, dose: 250.0 mg/kg/injection, schedule: Q01DX001 (ip), vehicle: suspension in saline): 62 % of control

Compound: Nc1ccc(S(=O)(=O)Nc2cnc3c(Cl)cccc3n2)cc1
- T/C (endpoint: median tumor weight change, dose: 125.0 mg/kg/injection, schedule: Q01DX001 (ip), vehicle: DMSO): 96 % of control
- T/C (endpoint: median tumor weight change, dose: 500.0 mg/kg/injection, schedule: Q01DX001 (ip), vehicle: DMSO): 102 % of control and 121 % of control
- T/C (endpoint: median tumor weight change, dose: 2000.0 mg/kg/injection, schedule: Q01DX001 (ip), vehicle: DMSO): 102 % of control

Compound: CCC(=O)O[C@H]1CC[C@H]2[C@@H]3CCC4=CC(=O)CC[C@]4(C)[C@H]3CC[C@]12C
- T/C (endpoint: median tumor weight (est.), dose: 160.0 mg/kg/injection, schedule: Q07DX005 (ip), vehicle: Klucel (hydroxypropylcellulose) (HPC)): 99 % of control
- T/C (endpoint: median tumor weight (est.), dose: 640.0 mg/kg/injection, schedule: Q07DX005 (ip), vehicle: Klucel (hydroxypropylcellulose) (HPC)): 48 % of control

Source: PubChem BioAssay AID220 (DTP/NCI, 2004)
